Legend:
[1] = target: T1, CaLIP10 (lipase 10 from Candida albicans; product of lip10-dm) (Candida albicans, UniProt Q9P4E5); assay: spectrophotometric release of p-nitrophenol at […] nm; format: biochemical; conditions: 2 mM substrate, 50 mM Tris-HCl pH 8.0, 25 °C
T1 construct: mature protein without signal peptide, cloned from genomic DNA; CTG-Ser codons 210 and 378 recoded to TCT, so the product keeps native Ser210 and Ser378 (no amino-acid change); secreted from Pichia pastoris X33 with pGAPZalphaA; about 50 kDa by SDS-PAGE

[2] = target: T1, CaLIP10 (lipase 10 from Candida albicans; product of lip10-dm); assay: clear zone on tributyrin-emulsion YPD plates, secreting P. pastoris transformants; format: cell-based; conditions: 1% tributyrin emulsion; X-33 and empty-vector control

T1 sequence (Q9P4E5 17-465): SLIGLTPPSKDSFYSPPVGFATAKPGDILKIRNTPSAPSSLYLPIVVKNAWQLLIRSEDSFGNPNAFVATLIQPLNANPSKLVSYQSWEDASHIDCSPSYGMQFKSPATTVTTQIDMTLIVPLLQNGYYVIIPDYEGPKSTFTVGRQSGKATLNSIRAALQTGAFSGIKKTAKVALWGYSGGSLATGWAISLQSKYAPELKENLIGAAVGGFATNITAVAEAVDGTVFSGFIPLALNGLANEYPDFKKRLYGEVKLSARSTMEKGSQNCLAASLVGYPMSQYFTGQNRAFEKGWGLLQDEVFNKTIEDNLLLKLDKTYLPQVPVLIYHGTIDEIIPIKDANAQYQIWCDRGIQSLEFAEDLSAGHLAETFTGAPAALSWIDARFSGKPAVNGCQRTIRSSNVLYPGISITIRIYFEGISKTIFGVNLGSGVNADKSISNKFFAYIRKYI

CCCCCCCC(=O)Oc1ccc([N+](=O)[O-])cc1 [p-nitrophenol caprylate]
spectrophotometric release of p-nitrophenol at 405 nm [1]: The lipase activity was determined spectrophotometrically using p-nitrophenol caprylate as substrate.

CCCC(=O)OCC(COC(=O)CCC)OC(=O)CCC [tributyrin]
clear zone on tributyrin-emulsion YPD plates, secreting P. pastoris transformant [2]: a clear zone was formed around wild type lip10 and mutated lip10-dm
